Measured values: article PMC7002685, “Inhibition of vascular calcification by inositol phosphates derivatized with ethylene glycol oligomers” (Nature Communications, 2020)

Key:
Chemokine CXCR2 (IL-8RB) = molecular target: T1, Chemokine CXCR2 (IL-8RB) (Homo sapiens, UniProt P25025); test: Off-target 244500; assay type: binding
T1 construct: purchased Eurofins Panlabs Discovery Services Taiwan, Ltd
Protocol: (§1) The potential off-target activity of 10 µM (OEG2)2-IP4 was assessed against a panel of 87 enzymes, receptors, or ion channels that are used in standard safety pharmacology screens.
(§2) 3.2. Off-target screening assay
(§3) The experiments were conducted by a contract research organization (Eurofins Panlabs Discovery Services Taiwan, Ltd.) and details on the respective assays can be retrieved via the catalog number provided in Supplementary Table 11 from the company’s webpage
(§4) (https://www.eurofinsdiscoveryservices.com/). […]
(§5) At sacrifice the left tibia of animals of the rat model with dietary adenine/high-phosphate-induced uremia and VC was collected, fixed with 70% v/v EtOH and embedded in methyl methacrylate. The trabecular bone compartment is known to be the most metabolic active i.e. actively re-structured bone compartment in CKD. Therefore, histomorphometric and micro-computed tomography (µCT) analysis of bone was performed on the trabecular compartment. Tibial sections were Goldner-stained for histomorphometric analysis of the proximal metaphysis using the AxioVision Release 4.5 software, as […]
(§6) described previously5. […]

Cyclooxygenase COX-2 = molecular target: T2, Cyclooxygenase COX-2 (Homo sapiens, UniProt P35354); test: Off-target 118010; assay type: biochemical
T2 construct: purchased Eurofins Panlabs Discovery Services Taiwan, Ltd
Protocol: as §1, §2, §3, §4, §5, §6

Cyclooxygenase COX-1 = molecular target: T3, Cyclooxygenase COX-1 (Homo sapiens, UniProt P23219); test: Off-target 116020; assay type: biochemical
T3 construct: purchased Eurofins Panlabs Discovery Services Taiwan, Ltd
Protocol: as §1, §2
(§7) The experiments were conducted by a contract research organization (Eurofins Panlabs Discovery
(§8) Services Taiwan, Ltd.) and details on the respective assays can be retrieved via the catalog number
(§9) provided in Supplementary Table 11 from the company’s webpage
as §4

[1] = In vitro ionized human serum calcium; assay type: physicochemical
Protocol: One potential side effect of inositol phosphate-based drugs is toxicity due to chelation of ionized serum calcium. […] At 100 µM (OEG2)2-IP4, 96 ± 2% of control serum-ionized calcium was measured.
To assess reduction in ionized serum calcium, increasing concentrations of test compounds were incubated in human serum (Human AB serum, off-the-clot, HSER-ABPM; LuBioScience GmbH, Zurich, Switzerland) at RT and free ionized calcium levels were measured subsequently by the o-cresolphthalein method using the calcium colorimetric assay.

Calcium Channel N-Type = molecular target: T4, Calcium Channel N-Type (Rattus norvegicus, UniProt Q02294); test: Off-target 216000; assay type: binding
T4 construct: purchased Eurofins Panlabs Discovery Services Taiwan, Ltd
Protocol: as §1, §2, §3, §4, §5, §6

[2] = molecular target: T5, Serotonin (5-Hydroxytryptamine) 5-HT2B (Homo sapiens, UniProt P41595); test: Off-target 271700; assay type: binding
T5 construct: purchased Eurofins Panlabs Discovery Services Taiwan, Ltd
Protocol: as §1, §2, §3, §4, §5, §6

[3] = test system: Calcium Channel L-Type, Benzothiazepine; test: Off-target 214510; assay type: binding, Rat; details: 10 µM
Protocol: as §1, §2, §3, §4, §5, §6

Muscarinic M4 = molecular target: T6, Muscarinic M4 (Homo sapiens, UniProt P08173); test: Off-target 252910; assay type: binding
T6 construct: purchased Eurofins Panlabs Discovery Services Taiwan, Ltd
Protocol: as §1, §2, §7, §8, §9, §4

[4] = test system: TNFα release from THP-1-derived macrophages; test: TNFα release from macrophages, compound without CPP2; assay type: cell-based, human; details: without combined CPP2 treatment
Protocol: THP-1 cells were plated at a density of 200,000 cells/well in a 24-well plate, differentiated as stated above, and subsequently treated with or without CPP2 (50 μg Ca/mL) in complete medium with or without test compounds (3, 10, 30, 100 μM) for 24 h at 37 °C, 5% CO2.
Human TNF-α was assayed in cell culture supernatants using commercial multiplex immunoassay kits (U-Plex of TNF-α (custom-made multiplex plate) and Human TNF- Kit (K151QWD-1), both from MesoScaleDiscovery, Rockville, MD, USA), and corrected for total protein content using the Micro BCA^TM Protein Assay Kit. […]
Data are expressed as
mean ± s.d. (n = 3 independent experiments).

[5] = PK s.c. in rats with vitamin D and warfarin-induced VC; assay type: in vivo; details: Sprague-Dawley, rat, plasma, sc, 50 mg/kg, 50 mg/kg s.c., Cardiovascular calcification model
Protocol: Moreover, the systemic exposure of the compound after s.c. administration was assessed in rats with VC (Fig. 4f, Supplementary Table 3).
To study PK in rats presenting with VC, plasma samples were used from a sub-group of the study where calcification was induced with vitamin D and warfarin treatment.
The bioanalytical method for (OEG2)2-IP4 in rat plasma was further optimized, qualified, and applied to the comparative PK study in adenine and high-phosphate diet-induced VC vs. vitamin D-induced VC animals. The LC-MS/MS analyses were carried out using a Dionex Ultimate RSLC ultra-high-pressure liquid chromatography (UHPLC) system (Thermo Fisher Scientific) coupled with a TSQ Quantiva^TM triple quadrupole mass spectrometer. The samples were stored at 5 °C in the autosampler prior to and during the analyses. […] Gradient elution (solvent A, 20 mM ammonium acetate in water (pH 5); solvent B, ACN) was used according to the program reported in Supplementary Table 18. The injection volume was 10 µL. MS/MS parameters (MRM acquisition, cycle time 0.2 s) for (OEG2)2-IP4 are reported in Supplementary Table 19 and the ESI source, working in negative ionization mode, applied the following parameters: static spray voltage 3000 V ion transfer tube and vaporizer temperatures at 400 and 100 °C, respectively; sheath and auxiliary gas (nitrogen) flow rates at 80 and 3 (arbitrary units). For the quantitative determination in rat plasma, product ion m/z 158.9 was selected because it provided the best sensitivity and selectivity. Calibration curve and quality control samples were prepared by adding 2 μL of working solution to 38 μL rat blank K3EDTA plasma (Biochemed, Winchester, VA) and precipitating plasma protein by addition of 120 μL of MeOH including internal standard OEG11-IP5. Samples were vortexed 1 min and centrifuged at (22,000 × g, 4 °C, 10 min). Supernatants (90 μL) were then transferred into a glass vial with insert and injected onto LC-MS/MS system. Both in adenine and high-phosphate diet-induced VC and vitamin D-induced VC rat PK samples were prepared for analysis in an analogous manner as done for spiked samples (assay volume 40 μL). The LLOQ and LOD in rat plasma for (OEG2)2-IP4 were 50 and 10 ng/mL, respectively. The ULOQ and detection was 50,000 ng/mL.

Glutamate, NMDA, Agonism = test: Off-target 232810; assay type: binding, Rat; details: 10 µM
Protocol: as §1, §2, §3, §4, §5, §6

Muscarinic M1 = molecular target: T7, Muscarinic M1 (Homo sapiens, UniProt P11229); test: Off-target 252610; assay type: binding
T7 construct: purchased Eurofins Panlabs Discovery Services Taiwan, Ltd
Protocol: as §1, §2, §3, §4, §5, §6

Adenosine A1 = molecular target: T8, Adenosine A1 (Homo sapiens, UniProt P30542); test: Off-target 200510; assay type: binding
T8 construct: purchased Eurofins Panlabs Discovery Services Taiwan, Ltd
Protocol: as §1, §2, §7, §8, §9, §4

[6] = molecular target: T9, (Rattus norvegicus, UniProt P43140); test: Off-target 203100; assay type: binding
T9 construct: purchased Eurofins Panlabs Discovery Services Taiwan, Ltd
Protocol: as §1, §2, §7, §8, §9, §4

Muscarinic M3 = molecular target: T10, Muscarinic M3 (Homo sapiens, UniProt P20309); test: Off-target 252810; assay type: binding
T10 construct: purchased Eurofins Panlabs Discovery Services Taiwan, Ltd
Protocol: as §1, §2, §3, §4, §5, §6

T8 sequence (P30542 whole entry): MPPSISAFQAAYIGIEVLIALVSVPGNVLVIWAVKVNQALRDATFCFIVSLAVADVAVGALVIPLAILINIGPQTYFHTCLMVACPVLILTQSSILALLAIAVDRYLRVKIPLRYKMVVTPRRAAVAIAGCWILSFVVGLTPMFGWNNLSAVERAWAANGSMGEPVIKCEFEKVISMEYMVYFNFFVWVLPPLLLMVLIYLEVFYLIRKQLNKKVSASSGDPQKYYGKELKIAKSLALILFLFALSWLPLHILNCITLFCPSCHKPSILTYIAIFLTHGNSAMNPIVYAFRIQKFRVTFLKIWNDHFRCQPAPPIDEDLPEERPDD
T10 sequence (P20309 whole entry): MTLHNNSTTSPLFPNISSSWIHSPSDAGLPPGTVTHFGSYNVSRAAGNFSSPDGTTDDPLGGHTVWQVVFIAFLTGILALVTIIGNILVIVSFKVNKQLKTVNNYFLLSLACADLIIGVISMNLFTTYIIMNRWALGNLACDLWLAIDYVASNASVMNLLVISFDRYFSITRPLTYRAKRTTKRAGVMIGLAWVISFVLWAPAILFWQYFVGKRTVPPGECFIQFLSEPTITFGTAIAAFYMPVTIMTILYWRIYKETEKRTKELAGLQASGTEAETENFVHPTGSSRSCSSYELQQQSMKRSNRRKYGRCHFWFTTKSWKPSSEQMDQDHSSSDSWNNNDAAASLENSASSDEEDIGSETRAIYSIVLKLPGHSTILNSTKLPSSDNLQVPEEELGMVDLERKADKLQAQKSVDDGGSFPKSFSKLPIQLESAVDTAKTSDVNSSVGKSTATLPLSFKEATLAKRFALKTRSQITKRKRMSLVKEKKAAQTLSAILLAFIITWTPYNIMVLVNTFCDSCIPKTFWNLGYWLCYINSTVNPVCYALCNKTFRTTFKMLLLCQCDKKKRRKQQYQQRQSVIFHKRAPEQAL
T3 sequence (P23219 24-599): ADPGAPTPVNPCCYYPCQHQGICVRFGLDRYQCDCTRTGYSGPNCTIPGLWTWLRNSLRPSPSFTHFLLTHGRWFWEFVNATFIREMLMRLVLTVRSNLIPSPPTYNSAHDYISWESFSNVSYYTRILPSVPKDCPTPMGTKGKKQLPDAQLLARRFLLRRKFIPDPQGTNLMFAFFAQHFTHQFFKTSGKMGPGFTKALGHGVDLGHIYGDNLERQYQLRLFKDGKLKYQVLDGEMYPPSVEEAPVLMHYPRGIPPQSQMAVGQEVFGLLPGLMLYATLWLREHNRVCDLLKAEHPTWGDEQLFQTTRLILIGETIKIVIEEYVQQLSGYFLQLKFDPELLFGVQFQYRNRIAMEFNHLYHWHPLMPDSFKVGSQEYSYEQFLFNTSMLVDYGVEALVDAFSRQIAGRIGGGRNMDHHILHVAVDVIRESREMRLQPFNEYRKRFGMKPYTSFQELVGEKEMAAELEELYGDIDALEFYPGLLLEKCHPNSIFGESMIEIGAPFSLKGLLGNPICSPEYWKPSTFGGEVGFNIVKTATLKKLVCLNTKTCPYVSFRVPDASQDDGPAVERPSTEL
T5 sequence (P41595 whole entry): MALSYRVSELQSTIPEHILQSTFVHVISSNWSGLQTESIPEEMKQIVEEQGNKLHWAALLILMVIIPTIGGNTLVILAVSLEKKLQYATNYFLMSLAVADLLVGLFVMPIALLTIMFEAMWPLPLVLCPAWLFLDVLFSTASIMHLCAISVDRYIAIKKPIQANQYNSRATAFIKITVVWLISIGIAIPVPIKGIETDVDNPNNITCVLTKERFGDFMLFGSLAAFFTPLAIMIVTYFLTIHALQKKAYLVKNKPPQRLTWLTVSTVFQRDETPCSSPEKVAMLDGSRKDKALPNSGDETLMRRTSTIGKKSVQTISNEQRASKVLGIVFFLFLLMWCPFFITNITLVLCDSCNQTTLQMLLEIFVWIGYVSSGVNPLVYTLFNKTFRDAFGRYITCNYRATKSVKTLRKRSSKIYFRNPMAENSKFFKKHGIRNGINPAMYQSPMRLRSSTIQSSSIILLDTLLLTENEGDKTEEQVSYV
T4 sequence (Q02294 whole entry): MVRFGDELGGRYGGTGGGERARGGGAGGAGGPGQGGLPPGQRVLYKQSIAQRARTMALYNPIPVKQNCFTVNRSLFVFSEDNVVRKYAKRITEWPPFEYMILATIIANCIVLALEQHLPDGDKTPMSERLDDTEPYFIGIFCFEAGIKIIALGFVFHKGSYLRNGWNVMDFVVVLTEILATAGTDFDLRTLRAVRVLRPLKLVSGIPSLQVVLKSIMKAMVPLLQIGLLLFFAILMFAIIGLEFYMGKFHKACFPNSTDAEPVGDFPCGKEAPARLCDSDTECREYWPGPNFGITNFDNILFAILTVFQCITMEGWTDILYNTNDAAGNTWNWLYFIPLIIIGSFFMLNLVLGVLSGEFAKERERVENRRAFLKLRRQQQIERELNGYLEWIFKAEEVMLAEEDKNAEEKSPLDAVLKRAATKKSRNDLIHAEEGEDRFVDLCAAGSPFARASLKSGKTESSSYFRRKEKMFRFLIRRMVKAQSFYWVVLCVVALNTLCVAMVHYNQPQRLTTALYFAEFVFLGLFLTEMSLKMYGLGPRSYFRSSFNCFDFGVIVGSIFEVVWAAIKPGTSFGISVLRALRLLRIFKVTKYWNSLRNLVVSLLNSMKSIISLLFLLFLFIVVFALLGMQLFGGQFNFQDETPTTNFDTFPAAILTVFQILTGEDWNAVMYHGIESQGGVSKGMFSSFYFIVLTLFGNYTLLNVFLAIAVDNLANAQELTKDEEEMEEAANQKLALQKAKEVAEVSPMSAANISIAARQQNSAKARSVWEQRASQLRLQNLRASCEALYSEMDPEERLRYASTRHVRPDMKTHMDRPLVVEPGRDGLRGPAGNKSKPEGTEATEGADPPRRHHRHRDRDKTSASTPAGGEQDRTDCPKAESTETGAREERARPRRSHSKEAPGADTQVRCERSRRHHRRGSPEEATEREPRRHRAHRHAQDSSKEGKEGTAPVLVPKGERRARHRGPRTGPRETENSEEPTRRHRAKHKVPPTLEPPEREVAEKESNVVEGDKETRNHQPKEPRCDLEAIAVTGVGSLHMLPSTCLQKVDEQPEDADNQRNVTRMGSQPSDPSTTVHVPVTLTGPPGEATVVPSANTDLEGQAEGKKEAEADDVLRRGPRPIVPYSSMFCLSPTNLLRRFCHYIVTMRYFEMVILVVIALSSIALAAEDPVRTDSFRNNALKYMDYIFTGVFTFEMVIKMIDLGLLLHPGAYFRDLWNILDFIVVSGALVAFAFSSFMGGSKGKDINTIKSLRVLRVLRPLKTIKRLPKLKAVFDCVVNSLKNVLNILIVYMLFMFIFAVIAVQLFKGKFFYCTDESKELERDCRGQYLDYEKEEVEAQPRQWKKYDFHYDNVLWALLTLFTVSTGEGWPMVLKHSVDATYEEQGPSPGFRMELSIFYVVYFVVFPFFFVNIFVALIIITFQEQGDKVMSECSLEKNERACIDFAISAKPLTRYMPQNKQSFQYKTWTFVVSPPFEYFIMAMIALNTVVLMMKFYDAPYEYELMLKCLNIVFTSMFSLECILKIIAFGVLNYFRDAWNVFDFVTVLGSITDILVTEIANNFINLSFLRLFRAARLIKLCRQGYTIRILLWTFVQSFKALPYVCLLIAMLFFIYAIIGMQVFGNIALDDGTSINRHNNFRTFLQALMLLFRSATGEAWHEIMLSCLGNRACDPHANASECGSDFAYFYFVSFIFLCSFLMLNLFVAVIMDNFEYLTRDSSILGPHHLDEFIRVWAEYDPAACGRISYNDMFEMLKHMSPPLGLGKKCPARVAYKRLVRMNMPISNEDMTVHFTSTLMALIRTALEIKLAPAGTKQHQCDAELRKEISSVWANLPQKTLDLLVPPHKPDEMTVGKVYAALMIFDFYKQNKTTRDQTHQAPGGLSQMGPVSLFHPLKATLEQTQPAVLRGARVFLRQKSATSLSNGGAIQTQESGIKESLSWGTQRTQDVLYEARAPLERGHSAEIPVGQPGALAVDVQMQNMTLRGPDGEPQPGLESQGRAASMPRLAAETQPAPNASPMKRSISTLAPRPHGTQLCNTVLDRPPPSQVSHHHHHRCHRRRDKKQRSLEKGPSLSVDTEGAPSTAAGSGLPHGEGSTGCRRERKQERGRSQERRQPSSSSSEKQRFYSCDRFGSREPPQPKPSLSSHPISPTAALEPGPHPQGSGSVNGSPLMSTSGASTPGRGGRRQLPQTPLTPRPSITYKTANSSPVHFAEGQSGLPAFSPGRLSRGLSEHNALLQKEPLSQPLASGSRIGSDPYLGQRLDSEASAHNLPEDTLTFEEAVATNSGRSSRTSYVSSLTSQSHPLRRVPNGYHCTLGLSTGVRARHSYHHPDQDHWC
T2 sequence (P35354 18-604): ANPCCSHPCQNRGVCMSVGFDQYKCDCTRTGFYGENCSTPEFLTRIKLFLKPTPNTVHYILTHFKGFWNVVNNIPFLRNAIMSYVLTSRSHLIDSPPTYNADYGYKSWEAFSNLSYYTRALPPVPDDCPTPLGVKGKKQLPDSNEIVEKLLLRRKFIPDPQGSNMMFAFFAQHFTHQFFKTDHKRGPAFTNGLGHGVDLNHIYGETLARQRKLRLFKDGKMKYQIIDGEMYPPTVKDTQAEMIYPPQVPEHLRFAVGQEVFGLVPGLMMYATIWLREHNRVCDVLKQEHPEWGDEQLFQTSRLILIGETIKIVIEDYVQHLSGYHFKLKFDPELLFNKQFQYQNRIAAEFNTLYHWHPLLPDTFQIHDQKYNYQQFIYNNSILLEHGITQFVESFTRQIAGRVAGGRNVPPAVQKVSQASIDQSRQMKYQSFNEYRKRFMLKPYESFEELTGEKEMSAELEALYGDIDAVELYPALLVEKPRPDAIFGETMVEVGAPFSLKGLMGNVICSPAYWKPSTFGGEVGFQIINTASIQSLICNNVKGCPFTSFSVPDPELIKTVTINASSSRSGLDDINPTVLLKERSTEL

With `COCCOCCO[C@@H]1[C@@H](OP(=O)(O)O)[C@H](OCCOCCOC)[C@@H](OP(=O)(O)O)[C@@H](OP(=O)(O)O)[C@H]1OP(=O)(O)O` [(OEG2)2-IP4, 4,6-Di-O-(methoxy-diethyleneglycol)-myo-inositol-1,2,3,5-tetrakis(phosphate)] as the compound, how does the inhibition at 10 µM (Chemokine CXCR2 (IL-8RB)) read?
Its inhibition at 10 µM is 6%.

What about the inhibition at 10 µM (Cyclooxygenase COX-2) of the same compound?
Its inhibition at 10 µM is 8%.

What about the inhibition at 10 µM (Cyclooxygenase COX-1) of the same compound?
The inhibition at 10 µM was -2%.

And the “concentration from which difference to IP6 in decrease of serum-ionized calcium became significant” value [1]?
Its value is ≥ 600 µM.

And the inhibition at 10 µM (Calcium Channel N-Type)?
Its inhibition at 10 µM is 5%.

What about the inhibition at 10 µM [2] of the same compound?
The inhibition at 10 µM was 1%.

And the “% Inhibition” value [3]?
Its value is -7%.

And the inhibition at 10 µM (Muscarinic M4)?
Its inhibition at 10 µM is 1%.

What about the “increase in TNFα levels in supernatants” value [4] of the same compound?
The value was “not observed”.

And the AUC(0-inf) [5]?
The AUC(0-inf) was 152 µM·h.

What about the CL/F [5] of the same compound?
The CL/F was 7 ± 2 mL/min/kg.

And the Cmax [5]?
Its Cmax is 34 ± 8 µM.

And the half-life [5]?
Its half-life is 3.73 ± 0.733 h.

What about the AUC(0-t) ([5]; read-out: AUC0-1440 (converted)) of the same compound?
The AUC(0-t) was 151 µM·h.

And the MRT last ([5]; read-out: MRT0-1440 (converted))?
The MRT last was 3.5 h.

And the “% Inhibition” value (Glutamate, NMDA, Agonism)?
Its value is 7%.

And the inhibition at 10 µM (Muscarinic M1)?
Its inhibition at 10 µM is -6%.

And the inhibition at 10 µM (Adenosine A1)?
The inhibition at 10 µM was 4%.

And the inhibition at 10 µM [6]?
Its inhibition at 10 µM is 1%.

And the inhibition at 10 µM (Muscarinic M3)?
Its inhibition at 10 µM is -6%.
